In ChEMBL document CHEMBL3751663, “Design and Synthesis of a Focused Library of Diamino Triazines as Potential Mycobacterium tuberculosis DHFR Inhibitors” (ACS Med Chem Lett, 2015):
In brackets after ≈: the same amount, converted by molar mass.

Experiments:
HepG2 = test: Cytotoxicity against human HepG2 cells by SRB assay; assay type: cell-based
A549 = test: Cytotoxicity against human A549 cells; assay type: cell-based
Staphylococcus aureus = test: Antimicrobial activity against Staphylococcus aureus; assay type: functional
[1] = tested on: Mycobacterium tuberculosis; test: microbe, parasite or virus in culture; details: H37Rv, 48 h
Description: Antimycobacterium activity against Mycobacterium tuberculosis H37Rv after 48 hrs by Resazurin microtiter assay

Escherichia coli = test: Antimicrobial activity against Escherichia coli; assay type: functional
[2] = tested on: Mycobacterium tuberculosis; test: Antimycobacterium activity against Mycobacterium tuberculosis H37Ra at dormant stage at 10 ug/ml; assay type: functional
Dihydrofolate reductase [3] = molecular target: T1, Dihydrofolate reductase (Homo sapiens, UniProt P00374); test: Inhibition of human DHFR using 45 uM DHF as substrate by spectrophotometry
T1 sequence (P00374 whole entry): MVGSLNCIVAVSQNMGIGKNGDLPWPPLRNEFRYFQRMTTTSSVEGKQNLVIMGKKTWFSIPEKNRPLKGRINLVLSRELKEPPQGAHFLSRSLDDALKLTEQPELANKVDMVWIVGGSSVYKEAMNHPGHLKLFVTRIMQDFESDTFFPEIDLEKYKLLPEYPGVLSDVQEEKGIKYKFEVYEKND

Dihydrofolate reductase [4] = molecular target: T2, Dihydrofolate reductase (Mycobacterium tuberculosis, UniProt P9WNX1); test: Inhibition of recombinant Mycobacterium tuberculosis DHFR using 45 uM DHF as substrate by spectrophotometry
T2 sequence (P9WNX1 whole entry): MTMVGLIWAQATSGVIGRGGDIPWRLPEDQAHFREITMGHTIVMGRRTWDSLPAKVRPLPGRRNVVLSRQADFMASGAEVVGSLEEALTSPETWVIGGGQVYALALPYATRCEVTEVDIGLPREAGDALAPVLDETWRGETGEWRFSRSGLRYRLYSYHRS

| Structure (SMILES) | Activity (HepG2) | Activity (A549) | MIC (Staphylococcus aureus) [µM] | MIC [1] [µM] | MIC (Escherichia coli) [µM] | inhibition at 10 µg/mL [2] [%] | IC50 (Dihydrofolate reductase [3]) [µM] | IC50 (Dihydrofolate reductase [4]) [µM] |
| --- | --- | --- | --- | --- | --- | --- | --- | --- |
| Cc1ccc(Oc2ccc(-c3nc(N)nc(N)n3)cc2)cc1 | Non-toxic | Non-toxic | 426 (≈ 125 µg/mL) | > 418 | 426 (≈ 125 µg/mL) |  |  |  |
| Nc1nc(N)nc(-c2ccc(Oc3ccccc3)cc2)n1 | Non-toxic | Non-toxic | 448 (≈ 125 µg/mL) | 110 (≈ 30.6 µg/mL) | 448 (≈ 125 µg/mL) | 19.4 |  |  |
| Nc1nc(N)nc(-c2ccc(Sc3ccccc3)cc2)n1 | Non-toxic | Non-toxic | 423 (≈ 125 µg/mL) | 212 (≈ 62.5 µg/mL) | 423 (≈ 125 µg/mL) | 11.7 |  |  |
| Nc1nc(N)nc(-c2ccc(Oc3ccc(F)cc3)cc2)n1 | Non-toxic | Non-toxic | 420 (≈ 125 µg/mL) | > 420 | 420 (≈ 125 µg/mL) | 4.98 |  |  |
| Nc1nc(N)nc(-c2ccc(Oc3ccc(Cl)cc3)cc2)n1 | Non-toxic | Non-toxic | 398 (≈ 125 µg/mL) | > 398 | 398 (≈ 125 µg/mL) | 81.1 |  |  |
| Cc1cccc(C)c1Oc1ccc(-c2nc(N)nc(N)n2)cc1 | Non-toxic | Non-toxic | 407 (≈ 125 µg/mL) | 20.3 (≈ 6.25 µg/mL) | 407 (≈ 125 µg/mL) | 96.9 |  |  |
| Cc1cccc(Oc2ccc(-c3nc(N)nc(N)n3)cc2)c1C | Non-toxic | Non-toxic | 407 (≈ 125 µg/mL) | 0.325 (≈ 0.0999 µg/mL) | 407 (≈ 125 µg/mL) | 16.1 | 42 | 25.9 |
| COc1ccc(Oc2ccc(-c3nc(N)nc(N)n3)cc2)cc1 | Non-toxic | Non-toxic | 404 (≈ 125 µg/mL) | > 396 | 404 (≈ 125 µg/mL) | 37.5 |  |  |
| Cc1cc(Oc2ccc(-c3nc(N)nc(N)n3)cc2)ccc1Cl | Non-toxic | Non-toxic | 381 (≈ 125 µg/mL) | > 381 | 381 (≈ 125 µg/mL) | 7.27 |  |  |
| Cc1cccc(Oc2ccc(-c3nc(N)nc(N)n3)cc2)c1 | Non-toxic | Non-toxic | 426 (≈ 125 µg/mL) | > 447 | 426 (≈ 125 µg/mL) | 15 |  |  |
| Cc1cc(Oc2ccc(-c3nc(N)nc(N)n3)cc2)cc(C)c1Cl | Non-toxic | Non-toxic | 366 (≈ 125 µg/mL) | > 369 | 366 (≈ 125 µg/mL) | 14.5 |  |  |
| Cc1cc(Cl)ccc1Oc1ccc(-c2nc(N)nc(N)n2)cc1 | Non-toxic | Non-toxic | 381 (≈ 125 µg/mL) | 1.96 (≈ 0.642 µg/mL) | 381 (≈ 125 µg/mL) | 87.2 |  |  |
| CC(C)(C)c1ccc(Oc2ccc(-c3nc(N)nc(N)n3)cc2)cc1 | Non-toxic | Non-toxic | 373 (≈ 125 µg/mL) | > 380 | 373 (≈ 125 µg/mL) | 42.2 |  |  |
| Nc1nc(N)nc(-c2ccc(Oc3ccc(Br)cc3)cc2)n1 | Non-toxic | Non-toxic | 349 (≈ 125 µg/mL) | 3.56 (≈ 1.28 µg/mL) | 349 (≈ 125 µg/mL) | 83 |  |  |
| Nc1nc(N)nc(-c2ccc(Oc3ccc(Cl)cc3Cl)cc2)n1 | Non-toxic | Non-toxic | 359 (≈ 125 µg/mL) | 3.59 (≈ 1.25 µg/mL) | 359 (≈ 125 µg/mL) | 93.6 |  |  |
| Nc1nc(N)nc(-c2ccc(Oc3ccccc3Cl)cc2)n1 | Non-toxic | Non-toxic | 398 (≈ 125 µg/mL) | 20.7 (≈ 6.5 µg/mL) | 398 (≈ 125 µg/mL) | 27.6 |  |  |
| NNC(=O)c1ccncc1 [ISONIAZID] |  |  |  | 0.73 (≈ 0.1 µg/mL) |  |  |  |  |
| CN(Cc1cnc2nc(N)nc(N)c2n1)c1ccc(C(=O)N[C@@H](CCC(=O)O)C(=O)O)cc1 [METHOTREXATE] |  |  |  | 0.968 (≈ 0.44 µg/mL) |  |  |  |  |
| COc1cc(Cc2cnc(N)nc2N)cc(OC)c1OC [TRIMETHOPRIM] |  |  |  | 28.9 (≈ 8.4 µg/mL) |  |  |  |  |
